One series deals with AMPK signaling. The series can be described thus: AMPK activation, Western blot, MDA-MB-231 cells. It is filed as cell-based, human. Particulars: 20 μM, 3 h; metformin 10 mM as comparison. As for the experimental part: In FIG. 9A, human breast cancer MDA-MB-231 cells were treated with 20 μM of EGCG, Pro-EGCG and EGCG analogs (compounds 5, 7, 23, 30 and 31), or 10 mM of metformin for 3 hrs. Cell lysates were analyzed by Western blot using antibodies of anti-AMPK, p-AMPK, PARP, p-EGFR, EGFR or β-actin. In FIG. 9B, human breast cancer MDA-MB-231 cells were treated with 20 μM of EGCG analogs 23 and 30, 10 nM of docetaxel alone, or combined treatment with compounds 23 and 30 plus docetaxel for 24 hrs. Cell lysates were analyzed by Western blot using antibodies of anti-AMPK, p-AMPK, PARP, p-EGFR, EGFR or β-actin. In FIG. 9C, cells were incubated in medium (0.1% BSA without FBS) containing 20 μM of 23, 30, 2.5 μM of Erlotinib (Eb) alone or the combinations as indicated for 24 hrs. Cell lyses were analyzed by Western blot using antibodies of anti-AMPK, p-AMPK, PARP, p-EGFR, EGFR or β-actin.
(§1) (A) EGCG analogs 23 and 30 inhibited breast cancer cell proliferation. MDA-MB-231 cells were treated with indicated concentrations of 23, 30 or metformin for 24 h, followed by a MTT assay. *, P<0.1; **, P<0.01. Columns, mean of three experiments; bars, SD. (B) EGCG analogs 23 and 30 activated AMPK at a dose-dependent manner, measured by elevated level of phosphor-AMPKα and its downstream proteins of phosphor-Raptor. […] MDA-MB-231 cells were treated with indicated concentrations of 23 or 30 for 3 h, followed by Western blot analysis with the indicated antibodies. The numbers underneath the Western results of p-AMPKα indicated normalized phosphor-AMPKα/β-actin ratios. […]
A whole cell extract was prepared from the treated cells as described by Landis-Piwowar et al. Cancer Res. (2007) 67, 4303, Chen et al. Cancer Res. (2007) 67, 1636, and Chen et al. Biochem. Pharm. (2005) 69, 1421. Cell extracts (30 μg) were separated by an SDS-PAGE gel and transferred to nitrocellulose membranes. The membrances were blotted by specific antibodies including anti-AMPK, p-AMPK, EGFR, p-EGFR (Cell Signaling Tech., Danvers, Mass.), PARP (Enzo Life Sciences, Plymouth Meeting, Pa.), actin (Santa Cruz Biotechnology, Santa Cruz, Calif.). The membranes were visualized by enhanced chemiluminescence, as described previously by Landis-Piwowar et al. Cancer Res. (2007) 67, 4303, Chen et al. Cancer Res. (2007) 67, 1636, and Chen et al. Biochem. Pharm. (2005) 69, 1421.
The Western blot analysis was performed as follows: A whole cell extract was prepared from the treated cells as described previously (Landis-Piwowar et al., Cancer research, 2007, 67: 4303-4310; Chen et al., Cancer research, 2007, 67: 1636-1644; Chen et al., Biochemical pharmacology, 2005, 69: 1421-1432). The cell extracts (30 μg) were then separated by an SDS-PAGE gel and transferred to nitrocellulose membranes. The membrances were blotted by specific antibodies including anti-AMPK, p-AMPK, EGFR, p-EGFR (Cell Signaling Tech. Danvers, Mass.), PARP (Enzo Life Sciences, Plymouth Meeting, Pa.), actin (Santa Cruz Biotechnology, Santa Cruz, Calif.). The membranes were visualized by enhanced chemiluminescence, as described previously (Landis-Piwowar et al., Cancer research, 2007, 67: 4303-4310; Chen et al., Cancer research, 2007, 67: 1636-1644; Chen et al., Biochemical pharmacology, 2005, 69: 1421-1432).
In FIG. 9A, human breast cancer MDA-MB-231 cells were treated with 20 μM of EGCG, Pro-EGCG and other EGCG analogs (compounds 5, 7, 23, 30 and 31), or 10 mM of metformin for 3 hrs. Cell lysates were analyzed by Western blot using antibodies of anti-AMPK, p-AMPK, PARP, p-EGFR, EGFR or β-actin. In FIG. 9B, human breast cancer MDA-MB-231 cells were treated with 20 μM of EGCG analogs 23 and 30, 10 nM of docetaxel alone, or combined treatment with compounds 23 and 30 plus docetaxel for 24 hrs.

Series [1] has as its target T1, purified rabbit 20S proteasome (Oryctolagus cuniculus, UniProt G1T4Q9).
T1 sequence (G1T4Q9 60-263): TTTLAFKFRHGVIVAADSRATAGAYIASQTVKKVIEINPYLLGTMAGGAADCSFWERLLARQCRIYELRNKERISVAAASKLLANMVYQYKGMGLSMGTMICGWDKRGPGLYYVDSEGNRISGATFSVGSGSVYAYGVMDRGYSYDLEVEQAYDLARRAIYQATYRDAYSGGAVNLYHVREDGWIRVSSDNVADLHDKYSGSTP
The series can be described thus: Inhibition of chymotrypsin-like activity of purified 20S proteasome. The class given is biochemical. To be noted: for proteasomal inhibition (in words): purified 20S proteasome, concentration not stated; for inhibition of proteasomal chymotryptic activity (in words): even at a concentration of 50 μM. As for the experimental part: Purified 20S proteasome was incubated with compound 5, 7, 16, or 21 (A) or MDA-MB-231 cell extract (5.7 μg) was incubated with compound 6, 8, 17, or 22 (B) at indicated concentrations for 2 hours, followed by measuring the proteasomal chymotrypsin-like activity. EGCG was used as a comparative standard.
Purified rabbit 20S proteasome and fluorogenic substrate Suc-LLVY-AMC for the proteasomal chymotrypsin like (CT-like) activity were obtained from Calbiochem Inc. (San Diego, Calif.). Fetal bovine serum (FBS) was from Tissue Culture Biologicals (Tulare, Calif.). Penicillin and streptomycin were purchased from Invitrogen Co. (Carlsbad, Calif.). RPMI 1640 medium was purchased from Invitrogen Co. (Carlsbad, Calif.). MTT (3-4,5-dimethylthiazol-2-yl-2.5-diphenyl-tetrazolium bromide) was purchased from Sigma-Aldrich.
A purified rabbit 20S proteasome (35 ng) was incubated with 20 μM of substrate Suc-LLVY-AMC in 100 μl assay buffer (20 mM Tris-HCl, pH 7.5), in the presence of EGCG or EGCG analogs at different concentrations or the solvent for 2 h at 37° C., followed by measurement of hydrolysis of the fluorogenic substrates using a Wallac Victor3™ multi-label counter with 355-nm excitation and 460-nm emission wavelengths.

Series [2] has as its system Human breast cancer MDA-MB-231 cells. The series can be described thus: MTT cell proliferation assay in MDA-MB-231 cells. The class given is cell-based. To be noted: 24 h; for inhibition at 50 µM: Homo sapiens, MDA-MB-231. As for the experimental part:
Human breast cancer MDA-MB-231 cells were treated with 25 or 50 μM EGCG analogs for 24 hours, followed by MTT assay. Pro-EGCG was used as a comparison.
Human breast cancer MDA-MB-231 cells with high COMT activity were treated with 50 μM EGCG analogs for 24 hours in the absence or presence of 10 μM DNC, followed by MTT assay. Pro-EGCG was used as a comparison.
as §1
(§2) Cells were grown in a 96-well plate. Triplicate wells of cells were treated with indicated concentrations of EGCG or EGCG analogs for 24 h. After aspiration of medium, MTT (1 mg/ml) was then added to the cell cultures, followed by incubation for 3 h at 37° C. After cells were crystallized, MTT was removed and DMSO was added to dissolve the metabolized MTT product. The absorbance was then measured on a Wallac Victor3 1420 Multi-label counter at 540 nm.

For series [3], the target named is T2, proteasomal chymotrypsin-like activity of MDA-MB-231 cell extracts (Homo sapiens, UniProt P28074).
T2 construct: endogenous in cells; host or cells: MDA-MB-231 human breast cancer cells (ATCC), cell extract
T2 sequence (P28074 60-263): T1 sequence (G1T4Q9 60-263) with D197E
The series can be described thus: Proteasomal chymotrypsin-like activity in MDA-MB-231 cell lysate with high COMT activity. It is filed as biochemical. To be noted: concentrations ranging between 1-10 μM, 2 h. As for the experimental part:
(A) MDA-MB-231 cell extracts (5.7 μg) were incubated with different concentrations of compound 5 or 7 or EGCG for 2 hours, followed by performance of proteasomal chymotrypsin-like activity assay. EGCG was used as a control. (B) MDA-MB-231 cell extracts (5.7 μg) were pre-treated with 10 μM DNC for 20 minutes, followed by co-incubation with compound 5, or 7 or EGCG for 2 h. The proteasomal chymotrypsin-like activity was measured.
Human breast cancer MDA-MB-231 cell lysate that contains high COMT activity were treated with varying concentrations of compound 5 or 7. […] Thus, consistent with previous reports EGCG is also susceptible to methylation by COMT (H., Lu, X. Meng, C. S. Yang, Drug Metabolism and Disposition; 31; 572, 2003).

Series [4] has as its system human multiple myeloma ARP cells. The series can be described thus: MTT assay in multiple myeloma ARP cells, alone or with Velcade. Particulars: 48 h; for effect on cell proliferation when combined with Velcade: 20 μM plus varying doses of Velcade. The class given is cell-based. Here is the method: The cells were treated with Velcade™ alone or with 20 μM of compounds 5, 7 and 23 or in combination with varying doses of Velcade™ for 48 hrs, followed by a MTT assay.
Human multiple myeloma cells (Arp and Opm1) cells, kindly provided by Dr. Ramesh Batchu (Wayne State University), were grown in RPMI-1640 medium supplemented with 10% FBS, 100 units/ml of penicillin, and 100 μg/ml of streptomycin. Cells were maintained at 37° C. in 5% CO2 (Mujtaba T, et al., Int J Mol Med. (2012) 29(1):102-6).
as §2
In general terms: Tetrazolium assays rely on reduction of a dye to a coloured formazan, in cell work by metabolically active cells.

A further series relates to MDA-MB-231 cells. The series can be described thus: Mammosphere formation assay. It is filed as cell-based. Particulars: Homo sapiens, MDA-MB-231, 168 h, 7 days. Here is the method:
MDA-MB-231 cells were seeded in low attached 6-well plates (1000 cells/well) and treated with indicated concentrations of 23 and 30 for 7 days, followed by calculating numbers of mammosphere (A) and taking photos of mammosphere morphology (B). Metformin and EGCG were served as control. *, P<0.1; **, P<0.01. Columns, mean of three experiments; bars, SD.
Mammosphere formation assay was performed to assess the capacity of cancer stem cell self-renewal. Single cell suspensions of MDA-MB-231 cells were thoroughly suspended and plated on ultra low adherent wells of 6-well plates (Corning, Lowell, Mass.) at 1000 cells/well in 1.5 ml of sphere formation medium (1:1 DMEM/F12 medium supplemented with 50 units/ml penicillin, […] streptomycin, B-27 and N-2). One milliliter of sphere formation medium was added every 3-4 days. After 7 days of incubation with different concentrations of EGCG analogs 23, 30 or metformin, the formed spheres were collected by centrifugation at 300 g for 5 min and counted with an inverted phase-contrast Zeiss Axiovert 25 microscope.

Structures are written as SMILES. Changes are numbered by the printed parent chain. Where two headings read alike, the source gives them in different places.

Regarding `CC(=O)Oc1cc(OC(C)=O)c2c(c1)O[C@H](c1cc(OC(C)=O)c(OC(C)=O)c(OC(C)=O)c1)[C@H](OC(=O)c1cc(OC(C)=O)c(OC(C)=O)c(OC(C)=O)c1)C2` [Compound 4, (−)-Epigallocatechin gallate octa-acetate], in the series on AMPK signaling, the “AMPK activation (p-AMPK)” value is on record as “can activate AMPK signaling”. For the same compound, the “proteasomal inhibition (in words)” value in series [1] is listed as “none”. The “inhibition in MDA-MB-231 cells growth” value in series [2] (25 to 50 μM, MTT) lay within 0 to 32%. For the same compound, the inhibition at 50 µM in series [2] (absence of DNC, read-out: inhibition of cell proliferation, compound alone) stood at 42%; in series [2] (plus 10 μM DNC (COMT inhibitor), read-out: inhibition of cell proliferation in the presence of DNC), 89%.

For the compound `O=C(O[C@H]1Cc2ccccc2C[C@H]1OC(=O)c1cc(O)c(O)c(O)c1)c1cc(O)c(O)c(O)c1` [Compound 5], in series [3], the “inhibition of proteasomal activity” value is on record as 10-16%. Also, the “effect on cell proliferation when combined with Velcade” value in series [4] is “antagonized the inhibitory effect”. Take `O=C(O[C@H]1Cc2ccccc2C[C@H]1OC(=O)c1cc(O)cc(O)c1)c1cc(O)cc(O)c1` [Compound 7]: the “inhibition of proteasomal activity” value in series [3] is listed as 18-51%. In addition, the “effect on cell proliferation when combined with Velcade” value in series [4] is listed as “synergistic inhibitory effect”. In addition, the inhibition at 20 µM in series [4] (Homo sapiens, ARP cells, 20 μM, read-out: inhibition of cell proliferation) is ~60%.

`O=C(O[C@H]1Cc2ccccc2C[C@H]1O)c1cc(O)c(O)c(O)c1` [Compound 16]: the “inhibition of proteasomal chymotryptic activity (in words)” value in series [1] is recorded as “did not inhibit”. On to `CC(=O)Oc1cc(C(=O)O[C@H]2Cc3ccccc3C[C@H]2OC(C)=O)cc(OC(C)=O)c1OC(C)=O` [Compound 17], for which, in series [1], the “proteasomal inhibition (in words)” value is recorded as “none”. In the case of `O=C(O[C@H]1Cc2ccccc2C[C@H]1O)c1cc(O)cc(O)c1` [Compound 21], the “inhibition of proteasomal chymotryptic activity (in words)” value in series [1] was “not active”. In the case of `CC(=O)Oc1cc(OC(C)=O)cc(C(=O)O[C@H]2Cc3ccccc3C[C@H]2OC(C)=O)c1` [Compound 22], the “proteasomal inhibition (in words)” value in series [1] was “none”. For `O=C(O[C@H]1Cc2ccccc2C[C@H]1OC(=O)c1ccc(F)c(F)c1)c1ccc(F)c(F)c1` [Compound 33], the melting point (commonly the temperature, or range, at which the solid turns liquid) was 102 to 104 °C. For the compound `O=C(O[C@H]1Cc2ccccc2C[C@H]1OC(=O)c1cc(F)cc(F)c1)c1cc(F)cc(F)c1` [Compound 34], the melting point lay in the range of 136 to 138 °C. Consider `CN(C)C(=N)N=C(N)N` [metformin, reference compound], for which the inhibition at 5000 µM in the series on MDA-MB-231 cells (5 mM) came to 41.4%. The compound also showed an inhibition at 10000 µM with MDA-MB-231 cells (10 mM) of 67.6%.

For the origin of these results see patent US20140378541A1, “Synthetic Epigallocatechin Gallate (EGCG) Analogs” (WAYNE STATE UNIVERSITY, priority 2011, published 2014).
